For the experiment, the system named is L1210 leukemia ip in BDF1 mice, survival T/C. As to the kind of experiment: NCI In Vivo Anticancer Drug Screen. Data for tumor model L1210 Leukemia (intraperitoneal) in B6D2F1 (BDF1) mice. The note with it: endpoint: mean survival time, higher = longer survival. A digest of the protocol: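 Mice bearing the transplanted tumor received compound or vehicle. Survival of the treated group was divided by that of the vehicle-treated control group to give the ratio.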

[1] abbreviates: dose: 100.0 mg/kg/injection, schedule: Q01DX001 (ip), vehicle: saline.
Setting [2] is: dose: 200.0 mg/kg/injection, schedule: Q01DX001 (ip), vehicle: saline.
Where [3] appears, read: dose: 100.0 mg/kg/injection, schedule: Q04DX003 (ip), vehicle: Klucel (hydroxypropylcellulose) (HPC).
[4] abbreviates: dose: 200.0 mg/kg/injection, schedule: Q04DX003 (ip), vehicle: Klucel (hydroxypropylcellulose) (HPC).
Where [5] appears, read: dose: 400.0 mg/kg/injection, schedule: Q01DX001 (ip), vehicle: saline.
Where [6] appears, read: dose: 50.0 mg/kg/injection, schedule: Q01DX001 (ip), vehicle: carboxymethylcellulose (CMC).
Where [7] appears, read: dose: 100.0 mg/kg/injection, schedule: Q01DX001 (ip), vehicle: carboxymethylcellulose (CMC).
Where [8] appears, read: dose: 200.0 mg/kg/injection, schedule: Q01DX001 (ip), vehicle: carboxymethylcellulose (CMC).
Where [9] appears, read: dose: 400.0 mg/kg/injection, schedule: Q01DX001 (ip), vehicle: carboxymethylcellulose (CMC).
The mark [10] stands for this setting: dose: 100.0 mg/kg/injection, schedule: Q04DX003 (ip), vehicle: saline with Tween-80.
Where [11] appears, read: dose: 200.0 mg/kg/injection, schedule: Q04DX003 (ip), vehicle: saline with Tween-80.
[12] abbreviates: dose: 400.0 mg/kg/injection, schedule: Q04DX003 (ip), vehicle: saline with Tween-80.
Where [13] appears, read: dose: 100.0 mg/kg/injection, schedule: Q04DX003 (ip), vehicle: saline.
Where [14] appears, read: dose: 200.0 mg/kg/injection, schedule: Q04DX003 (ip), vehicle: saline.

Where “and” joins values, the source holds several entries; their conditions need not be identical. Identical values can stand only once. Toxic doses and inconclusive results are not listed.

As for `Cc1cc(N(C)C)cc(C)c1C(=Nc1ccc(N=C(NO)c2c(C)cc(N(C)C)cc2C)cc1)NO`, the T/C is, setting by setting: under setting [1], 97 % of control; under setting [2], 109 % of control.
As to `Nc1ccc2c(c1)-n1cccc1C2=O`, the T/C runs as follows: under setting [3], 104 % of control; under setting [4], 101 % of control.
As for `CCCCCCCCCc1cc(C)cc(Cc2cc(C)cc(CCCCCCCCC)c2O)c1O`, the T/C was 98 % of control under setting [1], 98 % of control under setting [2] and 101 % of control under setting [5].
Turning to `CC1=CC(C)(C)NC(=S)N1c1cccc2ccccc12`, the T/C reads like this: (dose: 75.0 mg/kg/injection, schedule: Q01DX009 (ip), vehicle: saline with Tween-80) 90 % of control; (dose: 150.0 mg/kg/injection, schedule: Q01DX009 (ip), vehicle: saline with Tween-80) 87 % of control; (dose: 224.0 mg/kg/injection, schedule: Q01DX Z (ip), vehicle: methylcellulose (MC)) 94 % of control; (dose: 300.0 mg/kg/injection, schedule: Q01DX009 (ip), vehicle: saline with Tween-80) 88 % of control; (dose: 334.0 mg/kg/injection, schedule: Q01DX Z (ip), vehicle: methylcellulose (MC)) 86 % of control; (dose: 500.0 mg/kg/injection, schedule: Q01DX Z (ip), vehicle: methylcellulose (MC)) 88 % of control. Where the note is “dose: 750.0 mg/kg/injection, schedule: Q01DX Z (ip), vehicle: methylcellulose (MC)”, the T/C is 102 % of control.
Regarding `CCOc1ccc([N+](=O)[O-])cc1CNCCCl`, the T/C is 102 % of control (dose: 25.0 mg/kg/injection, schedule: Q04DX003 (ip), vehicle: Klucel (hydroxypropylcellulose) (HPC)); 98 % of control (dose: 50.0 mg/kg/injection, schedule: Q04DX003 (ip), vehicle: Klucel (hydroxypropylcellulose) (HPC)); 98 % of control and 104 % of control under setting [3].
As for `CC(C)N(C(=O)Nc1cccc(F)c1)C1CCCCC1`, the T/C by setting is: (dose: 50.0 mg/kg/injection, schedule: Q01DX009 (ip), vehicle: gum acacia) 105 % of control; (dose: 100.0 mg/kg/injection, schedule: Q01DX009 (ip), vehicle: gum acacia) 100 % of control and 88 % of control; (dose: 200.0 mg/kg/injection, schedule: Q01DX009 (ip), vehicle: gum acacia) 94 % of control; (dose: 400.0 mg/kg/injection, schedule: Q01DX009 (ip), vehicle: gum acacia) 90 % of control.
Take `O=C1c2cc(Br)ccc2-c2c(F)cc(Br)cc21`: the T/C by setting is: under setting [6], 105 % of control; under setting [7], 100 % of control; under setting [8], 100 % of control; under setting [9], 94 % of control.
`Clc1ccc(C=Nc2ccc(Cl)cc2)cc1`: the T/C was 108 % of control under setting [10], 90 % of control under setting [11] and 106 % of control under setting [12].
In the case of `CC(=O)c1ccc(CCC(=O)O)cc1`, the T/C was 94 % of control (dose: 100.0 mg/kg/injection, schedule: Q04DX002 (ip), vehicle: saline with Tween-80); 98 % of control (dose: 200.0 mg/kg/injection, schedule: Q04DX002 (ip), vehicle: saline with Tween-80); 90 % of control (dose: 400.0 mg/kg/injection, schedule: Q04DX002 (ip), vehicle: saline with Tween-80).
In the case of `CC(C)(C)OC(=O)C(=[N+]=[N-])C(=O)OC(C)(C)C`, the T/C reads like this: (dose: 100.0 mg/kg/injection, schedule: Q01DX001 (ip), vehicle: Klucel (hydroxypropylcellulose) (HPC)) 97 % of control; (dose: 100.0 mg/kg/injection, schedule: Q01DX009 (ip), vehicle: Klucel (hydroxypropylcellulose) (HPC)) 102 % of control; under setting [3], 98 % of control; (dose: 200.0 mg/kg/injection, schedule: Q01DX001 (ip), vehicle: Klucel (hydroxypropylcellulose) (HPC)) 97 % of control; (dose: 200.0 mg/kg/injection, schedule: Q01DX009 (ip), vehicle: Klucel (hydroxypropylcellulose) (HPC)) 105 % of control; under setting [4], 104 % of control. Further, the T/C is 90 % of control (dose: 400.0 mg/kg/injection, schedule: Q01DX001 (ip), vehicle: Klucel (hydroxypropylcellulose) (HPC)); 105 % of control (dose: 400.0 mg/kg/injection, schedule: Q01DX009 (ip), vehicle: Klucel (hydroxypropylcellulose) (HPC)); 104 % of control (dose: 400.0 mg/kg/injection, schedule: Q04DX003 (ip), vehicle: Klucel (hydroxypropylcellulose) (HPC)).
In the case of `N#CCCCN1CCOCC1`, the T/C under setting [13] is 96 % of control; the T/C under setting [14] was 96 % of control; the T/C (dose: 400.0 mg/kg/injection, schedule: Q04DX003 (ip), vehicle: saline) is 104 % of control.
With `CC1(COCCOCC2(C)CO2)CO1` (stereo unspecified), the T/C was 97 % of control under setting [13]; 106 % of control and 108 % of control (dose: 180.0 mg/kg/injection, schedule: Q01DX009 (ip), vehicle: saline); 103 % of control under setting [14]; 112 % of control (dose: 266.0 mg/kg/injection, schedule: Q01DX009 (ip), vehicle: saline); 150 % of control (dose: 400.0 mg/kg/injection, schedule: Q01DX009 (ip), vehicle: saline).
With `O=S(=O)(F)c1cc(C[P+](c2ccccc2)(c2ccccc2)c2ccccc2)ccc1Cl`, the T/C by setting is: (dose: 6.25 mg/kg/injection, schedule: Q01DX009 (ip), vehicle: saline with Tween-80) 105 % of control; (dose: 12.5 mg/kg/injection, schedule: Q01DX009 (ip), vehicle: saline with Tween-80) 102 % of control; (dose: 25.0 mg/kg/injection, schedule: Q01DX009 (ip), vehicle: saline with Tween-80) 103 % of control.
As for `COC(=O)C12C3C=CC(O3)C1(C(=O)OC)C1C=CC2O1` (stereo unspecified), the T/C is 100 % of control (dose: 87.5 mg/kg/injection, schedule: Q01DX009 (ip), vehicle: Klucel (hydroxypropylcellulose) (HPC)); 97 % of control (dose: 175.0 mg/kg/injection, schedule: Q01DX009 (ip), vehicle: Klucel (hydroxypropylcellulose) (HPC)); 101 % of control (dose: 350.0 mg/kg/injection, schedule: Q01DX009 (ip), vehicle: Klucel (hydroxypropylcellulose) (HPC)).
`C#[C][Sn]([CH2]CCC)([CH2]CCC)[CH2]CCC`: the T/C runs as follows: (dose: 0.39 mg/kg/injection, schedule: Q01DX009 (ip), vehicle: saline with Tween-80) 109 % of control; (dose: 0.78 mg/kg/injection, schedule: Q01DX009 (ip), vehicle: saline with Tween-80) 94 % of control; (dose: 1.56 mg/kg/injection, schedule: Q01DX009 (ip), vehicle: saline with Tween-80) 95 % of control and 98 % of control.
`CCCCC/C=C(\CCCCCC)c1ccccc1`: the T/C (dose: 100.0 mg/kg/injection, schedule: Q01DX001 (ip), vehicle: saline with Tween-80) is 98 % of control; the T/C (dose: 200.0 mg/kg/injection, schedule: Q01DX001 (ip), vehicle: saline with Tween-80) is 95 % of control; the T/C (dose: 400.0 mg/kg/injection, schedule: Q01DX001 (ip), vehicle: saline with Tween-80) is 90 % of control.
Consider `COC1OC(COS(=O)(=O)c2ccc(C)cc2)C(OS(=O)(=O)c2ccc(C)cc2)C(OS(=O)(=O)c2ccc(C)cc2)C1OS(=O)(=O)c1ccc(C)cc1` (stereo unspecified), for which the T/C runs as follows: under setting [10], 91 % of control; under setting [11], 91 % of control; under setting [12], 90 % of control.
Consider `O=C(Nc1cccc(Cl)c1)Oc1ccc(C2CCCCC2)cc1`, for which the T/C is, setting by setting: (dose: 100.0 mg/kg/injection, schedule: Q04DX002 (ip), vehicle: Klucel (hydroxypropylcellulose) (HPC)) 104 % of control; (dose: 200.0 mg/kg/injection, schedule: Q04DX002 (ip), vehicle: Klucel (hydroxypropylcellulose) (HPC)) 99 % of control; (dose: 400.0 mg/kg/injection, schedule: Q04DX002 (ip), vehicle: Klucel (hydroxypropylcellulose) (HPC)) 101 % of control.
For `O=S(CS(=O)c1ccccc1)c1ccccc1` (stereo unspecified), the T/C under setting [1] was 100 % of control, the T/C under setting [2] was 94 % of control and the T/C under setting [5] was 100 % of control.
Regarding `N#CC(c1ccc(N)cc1)c1ccc(F)cc1` (stereo unspecified), the T/C runs as follows: (dose: 50.0 mg/kg/injection, schedule: Q01DX001 (ip), vehicle: saline) 97 % of control; under setting [1], 97 % of control; under setting [2], 97 % of control.
`CCOC(=O)C(C)(NC(C)=O)C(C)=O` (stereo unspecified): the T/C by setting is: under setting [6], 106 % of control; under setting [7], 114 % of control; under setting [8], 101 % of control; under setting [9], 92 % of control.
